Reference: BindingDB's records for doi:10.3109/14756366.2013.823958 (Birla Institute of Technology, 2014)

Biological target: T1, Secreted chorismate mutase (Mycobacterium tuberculosis (strain ATCC 25618 / H37Rv), UniProt P9WIB9)
T1 sequence (P9WIB9 whole entry): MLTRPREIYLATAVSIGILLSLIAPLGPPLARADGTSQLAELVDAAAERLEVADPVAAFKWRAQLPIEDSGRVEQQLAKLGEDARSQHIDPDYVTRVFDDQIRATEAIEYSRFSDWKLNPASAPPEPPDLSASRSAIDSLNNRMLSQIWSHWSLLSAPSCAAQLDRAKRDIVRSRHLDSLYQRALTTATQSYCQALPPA
Assay: CM Assay
Conditions: pH 7.5; 37 °C
Description: Reaction volumes of 0.4 mL of chorismate (typically, 1 mM) in 50 mM Tris-HCl (pH 7.5), 0.5 mM EDTA, 0.1 mg/mL bovine serum albumin, and 10 mM β-mercaptoethanol were incubated at 37 °C for 5 min. The reaction was started with 5 pmol of MTB CM in a 10-μl volume (i.e. 185 ng of MTB CM equivalent toa 12.5nM final concentration of the dimer based on the molecular mass of 36 948 Da). The reaction was allowed to proceed at 37 °C and was terminated after 1 min to 5 min with 0.4 ml of 1N HCl. After a further incubation at 37 °C for 10 min to convert prephenate, which is formed in the enzymatic reaction, tophenylpyruvate, 0.8 ml of 2.5N NaOH was added. The absorbance of the phenylpyruvate chromophore was read at 320 nm. We set up a blank with no enzyme for every reaction to account for the non-enzymatic conversion of chorismate to prephenate and added the enzyme after NaOH addition. The A320 for the blank varied from 0.1 to 0.3, depending on the concentration of chorismate and duration of the reaction. Each reaction was carried out in triplicates.

First: CC(C)c1cccc(O)c1 [Carvacrol derivative, 10]
Second: Cc1ccc(C(C)C)cc1O
The IC50 of the first is 20-fold higher: 21.4 µM for the first, 1.06 µM for the second. The second is the more potent here.

COc1cc(C=O)ccc1O [4-hydroxy-3-methoxybenzaldehyde] and C=CCc1ccc(O)c(OC)c1 [2-methoxy-4-(prop-2-en-1-yl)phenol4-allyl-2-methoxyphenol] are within 1.5-fold of each other in IC50: 24.8 µM for the first, 28.6 µM for the second.

First: Cc1ccc(C(C)C)cc1 [Carvacrol derivative, 8]
Second: Cc1ccc(C(C)C)c(O)c1 [5-methyl-2-(propan-2-yl)phenol]
The IC50 of the first is 2.4-fold lower: 11.6 µM for the first, 28.4 µM for the second. The first is the more potent here.

Going from CC(=O)Oc1cc(C)ccc1C(C)C [Thymol derivative, 17] to COc1cc(C)ccc1C(C)C [Thymol derivative, 21], the IC50 rises from 4.08 µM to 21.6 µM (5.3-fold).

First: CC1CCC(C(C)C)C(O)C1 (stereo not drawn) [Menthol]
Second: C=C(C)C1CCC(C)CC1O (stereo not drawn) [(±)Neo isopulegol]
The IC50 of the first is 1.9-fold higher: 26.4 µM for the first, 13.6 µM for the second. The second is the more potent here.

Going from Cc1cc(Cl)c(C(C)C)cc1O [Carvacrol derivative, 15] to Cc1cc(O)cc(C(C)C)c1 [Carvacrol derivative, 7], the IC50 rises from 13.7 µM to 26.8 µM (2-fold).

Compound Cc1ccccc1O [Carvacrol derivative, 9] has an IC50 of 23.1 µM.
